The subject of assay [1] is NA with H275Y mutation, strain A/WSN/1933 (H1N1). The conditions noted are these: cited from earlier work.
Assay [2] concerns H275Y NA2009. The assay is classed as binding, A/California/07/2009 (H1N1) influenza virus.
Assay [3] relates to S247N NA2009. In kind it is binding, A/California/07/2009 (H1N1) influenza virus.
Another assay relates to H275Y/I223V NA2009. In kind it is biochemical, A/California/07/2009 (H1N1) influenza virus.
Assay [4] relates to H275Y/S247N 2009 pandemic H1N1 virus. The conditions noted are these: cited from earlier work.
In assay [5] the test system is H275Y/I223V 2009 pandemic H1N1 virus. The conditions noted are these: cited from earlier work.
For the next assay, the system named is H275Y/S247N NA2009. The assay is classed as biochemical, A/California/07/2009 (H1N1) influenza virus.
For assay [6], the system named is S247N NA2009. In kind it is biochemical, A/California/07/2009 (H1N1) influenza virus.
Assay [7] has as its system I223V NA2009. In kind it is binding, A/California/07/2009 (H1N1) influenza virus.
For assay [8], the target named is I223V NA2009. In kind it is biochemical, A/California/07/2009 (H1N1) influenza virus.
For assay [9], the target named is H275Y NA2009. In kind it is biochemical, A/California/07/2009 (H1N1) influenza virus.

`CCC(CC)O[C@@H]1C=C(C(=O)O)C[C@H](N)[C@H]1NC(C)=O` [oseltamivir carboxylate]: the “reduction in susceptibility conferred by His to Tyr mutation at position 275” value in assay [1] is 750 fold. In the assay with H275Y NA2009 [2], the “enthalpy change less favorable than the wt value” was 8.7 kcal/mol and the “more favorable entropic contribution (referenced to the wt value)” value stood at 6 kcal/mol. On H275Y NA2009 [2] (pH 6.15), the affinity, expressed as Kd, was 13.2 µM; the ΔG was -6.7 ± 0.03 kcal/mol; the ΔH is -2.1 ± 0.04 kcal/mol; the “−T·ΔS” value was -4.6 ± 0.1 kcal/mol. Moreover, in the assay on S247N NA2009 [3], the “entropic contribution of binding compared to wt” value is listed as “almost unaffected” and the “less favorable enthalpy change compared to wt” value came out at 0.4 kcal/mol. Also, at S247N NA2009 [3] (pH 6.15), the dissociation constant Kd was 0.41 ± 0.02 µM, the ΔG was -8.7 ± 0.03 kcal/mol, the ΔH is -10.4 ± 0.1 kcal/mol and the “−T·ΔS” value was found to be 1.7 ± 0.1 kcal/mol. In addition, in the assay with H275Y/I223V NA2009, the “Fold Ki” value is 3900 fold, affinity was put at a Ki of 94 µM and the “increase in Ki compared to H275Y NA2009” value is reported as “more than three-fold”. For the same compound, the “enhanced oseltamivir-resistant phenotype compared to the recombinant wt virus” value in assay [4] is given as 7000 fold. Moreover, the “enhanced oseltamivir-resistant phenotype compared to the recombinant wt virus” value in assay [5] is given as 1733 fold. Besides, in the assay with H275Y/S247N NA2009, the “Fold Ki” value came to 9000 fold, the Ki was 220 µM, the “increase in Ki compared to the H275Y single mutant” value is 8 fold and the “increase in Ki compared to the S247N single mutant” value is listed as 500 fold. In the assay on S247N NA2009 [6], the “Fold Ki” value was 19 fold and affinity was put at a Ki of 0.45 ± 0.04 µM. Besides, in the assay on I223V NA2009 [7], the “less favorable enthalpy change compared to wt” value was 1.4 kcal/mol and the “more favorable entropic contribution compared to wt” value amounted to 0.6 kcal/mol. Besides, at I223V NA2009 [7] (pH 6.15), binding was put at a Kd of 0.52 ± 0.03 µM, the ΔG was -8.6 ± 0.1 kcal/mol, the ΔH is -9.4 ± 0.1 kcal/mol and the “−T·ΔS” value was determined as 0.9 ± 0.2 kcal/mol. Also, on I223V NA2009 [8], the Ki stood at 0.7 ± 0.1 µM. The same compound yielded a Ki at H275Y NA2009 [9] of 27 µM.

For `CCC(CC)[C@H](NC(C)=O)[C@@H]1[C@H](O)[C@@H](C(=O)O)C[C@H]1N=C(N)N` [peramivir], the “reduction in susceptibility conferred by His to Tyr mutation at position 275” value in assay [1] is listed as 260 fold.

By Kd is commonly meant a measure of binding affinity in units of concentration. Usually Ki stands for a dissociation constant, usually derived from enzyme kinetics or from competition with a known ligand. The low end stands for tighter binding, the high end for weaker binding.

The values are drawn from article PMC6071225 (Viruses, 2018).
